{"source": "patent US10053498B2", "about": "“Compositions comprising serum albumin and p53 peptides fusion proteins” (University of the Sciences of Philadelphia, priority 2014, dated 2018)", "key": {"MDA-MB-231 cells": {"system": "MDA-MB-231 cells", "assay": "CyQuant cytotoxicity assay in MDA-MB-231 cells", "format": "cell-based", "settings": "24 hrs, relative to rHSA-treated cells; nutlin 10 μM, ABT-263 2.5 μM (FIG. 13)", "description": "(§2) Cytotoxicities were measured by CyQuant Assay and normalized according to rHSA-treated cells."}, "Hela cells": {"system": "Hela cells", "assay": "CyQuant cytotoxicity assay in Hela cells", "format": "cell-based", "settings": "24 hrs, relative to rHSA-treated cells; nutlin 10 μM, ABT-263 2.5 μM (FIG. 13)", "description": "as §2"}, "[1]": {"settings": "plasma protein; cited from earlier work"}, "p53": {"system": "p53", "assay": "Western blot and densitometry of p53 protein in SJSA-1 cells", "format": "cell-based", "settings": "10 μM, 24 hrs, densitometry", "procedure": "(§1) SJSA-1 cells were lysed in buffer containing 20 mM Tris-HCl, 50 mM NaCl, 0.05% Triton X-100, and protease inhibitor cocktail. […] Mixtures were then allowed to incubate for 1 hour at RT."}, "SJSA-1 cells [2]": {"system": "SJSA-1 cells", "assay": "CyQuant cytotoxicity assay in SJSA-1 cells", "format": "cell-based", "settings": "24 hrs, relative to rHSA-treated cells; nutlin 10 μM (FIG. 13)", "description": "Osteosarcoma SJSA-1 cells (ATCC) were grown in RPMI media containing 10% FBS. Cytotoxicity assays were performed using SJSA-1 cells plated in 24- or 96-well plates at 20,000 or 5,000 cells per well, respectively. Cells were allowed to attach overnight. All treatments were added on day 2 in RPMI media containing 1% FBS plus the equivalent amounts of 1×PBS buffer. Unless otherwise indicated, cells were exposed to treatment media for 24 hours, at which time cytotoxicity was measured using the fluorometric CyQuant assay (Invitrogen, C35006) or the fluorometric Homogeneous Caspase assay (Roche, 03005372001), according to the manufacturer's instructions, for detection of apoptosis. All results were plotted relative to rHSA- or where indicated, rHSA/FA-FITC-treated cells."}, "MDM2": {"system": "MDM2", "sequence (Q00987 whole entry)": "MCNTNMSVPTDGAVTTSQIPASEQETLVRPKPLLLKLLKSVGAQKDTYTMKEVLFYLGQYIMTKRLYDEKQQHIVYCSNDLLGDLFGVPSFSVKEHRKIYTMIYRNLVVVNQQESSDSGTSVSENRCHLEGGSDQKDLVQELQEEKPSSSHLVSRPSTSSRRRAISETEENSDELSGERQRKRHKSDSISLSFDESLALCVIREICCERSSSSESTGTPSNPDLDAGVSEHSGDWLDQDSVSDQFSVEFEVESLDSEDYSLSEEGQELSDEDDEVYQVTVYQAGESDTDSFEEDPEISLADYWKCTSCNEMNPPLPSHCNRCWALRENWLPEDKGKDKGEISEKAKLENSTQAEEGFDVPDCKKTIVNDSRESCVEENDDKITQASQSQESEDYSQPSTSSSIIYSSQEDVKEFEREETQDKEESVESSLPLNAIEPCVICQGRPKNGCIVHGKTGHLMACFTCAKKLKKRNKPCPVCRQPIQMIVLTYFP", "assay": "Western blot and densitometry of MDM2 protein in SJSA-1 cells", "format": "cell-based", "settings": "10 μM, 24 hrs, densitometry", "procedure": "as §1"}, "SJSA-1 cells [3]": {"system": "SJSA-1 cells", "assay": "Cell death on co-treatment with MTX in SJSA-1 cells", "format": "cell-based", "settings": "co-treatment with MTX versus single agents (FIG. 14A)", "procedure": "As shown above, HSA-PMI may induce apoptosis by disrupting MDM2/MDMX-p53 interaction and/or by inducing the release of BAK from MCL-1 or BCL-Xl. […] To test this hypothesis, SJSA cells were treated with MTX alone, HSA-PMI/nutlin alone, or MTX and HSA-PMI/nutlin."}}, "data": [{"molecule": "CC1(C)CCC(c2ccc(Cl)cc2)=C(CN2CCN(c3ccc(C(=O)NS(=O)(=O)c4ccc(N[C@H](CCN5CCOCC5)CSc5ccccc5)c(S(=O)(=O)C(F)(F)F)c4)cc3)CC2)C1", "note": "[ABT-263]", "values": [{"measurement": "cell death in MDA-MB-231 cells (p53 negative)", "setting": "MDA-MB-231 cells", "value": "killed"}, {"measurement": "cell death in Hela cells (p53 under-expressing)", "setting": "Hela cells", "value": "killed"}]}, {"molecule": "HSA: human serum albumin, the most abundant plasma protein", "values": [{"measurement": "average half-life", "setting": "[1]", "value": 19, "unit": "days"}]}, {"molecule": "nutlin", "values": [{"measurement": "increase in p53 protein", "setting": "p53", "value": 11.5, "unit": "fold"}, {"measurement": "cell death in SJSA-1 cells (p53 positive)", "setting": "SJSA-1 cells [2]", "value": "killed"}, {"measurement": "change in MDM2 protein expression", "setting": "MDM2", "value": 5, "unit": "fold"}, {"measurement": "cell death in combination with MTX", "setting": "SJSA-1 cells [3]", "value": "not additive"}]}]}
